Test [1] concerns Mus musculus. Briefly: Neuroprotective activity in transgenic mouse amyotrophic lateral sclerosis model harboring SOD1 G93A mutant assessed as increase in survival rate at 60 mg/kg, administered via oral gavage started from first day of symptomatic onset until disease end stage relative to control. The format is functional.
A short description of test [2]: Neuroprotective activity in transgenic C57/BL6 mouse amyotrophic lateral sclerosis model harboring SOD1 G93A mutant assessed as upregulation of HSP25 levels in spinal cord at 4 mg/kg, ip administered twice weekly started from postnatal day 40 until disease end stage by Western blot method relative to control. The test is classed as functional, organism-based. In general terms: In western blotting, separated proteins are transferred to a membrane and probed.

The nature of test [3]: Neuroprotective activity in transgenic C57/BL6 mouse amyotrophic lateral sclerosis model harboring SOD1 G93A mutant assessed as upregulation of HSP70 levels in spinal cord at 4 mg/kg, ip administered twice weekly started from postnatal day 40 until disease end stage by Western blot method relative to control. The test is classed as functional, organism-based.
Test [4] deals with Mus musculus. Briefly: Neuroprotective activity in transgenic C57/BL6 mouse amyotrophic lateral sclerosis model harboring SOD1 G93A mutant assessed as decrease in misfolded SOD1 levels in spinal cord at 4 mg/kg, ip administered twice weekly started from postnatal day 40 until disease end stage by immunoprecipitation method relative to control. The test is classed as functional. Further details: scale not given: the % may be the effect or the level left.

Test [5] deals with Mus musculus. Briefly: Neuroprotective activity in transgenic mouse amyotrophic lateral sclerosis model harboring SOD1 G93A mutant assessed as death of motor neurons in lumbar spinal cord at 10 mg/kg, po measured at 7 days post disease onset by immunostaining method (reference value: 58%). The format is functional.
Test [6] deals with Mus musculus. Briefly: Neuroprotective activity in transgenic mouse amyotrophic lateral sclerosis model harboring human SOD1 H46R mutant assessed as increase in survival rate at 0.5 mg/kg, ig administered daily starting at day of disease onset until disease end stage relative to control. The format is functional.
Test [7] relates to Mus musculus. Briefly: Neuroprotective activity in transgenic mouse amyotrophic lateral sclerosis model harboring human SOD1 H46R mutant assessed as ChAT-positive motor neurons loss in anterior horn at 0.5 mg/kg, ig administered daily starting at day of disease onset until disease end stage by immunostaining method (reference value: 43%). The format is functional.
Test [8] deals with Mus musculus. Briefly: Neuroprotective activity in transgenic mouse amyotrophic lateral sclerosis model harboring human SOD1 H46R mutant assessed as increase in survival rate at 0.1 mg/kg, ig administered daily starting at day of disease onset until disease end stage relative to control. The test is classed as functional.
Test [9] concerns Mus musculus. Briefly: Neuroprotective activity in transgenic mouse amyotrophic lateral sclerosis model harboring SOD1 […] mutant assessed as prolongation of survival at 10 ug/kg, administered through gastric tube daily started between day 88 to 106 of disease onset until disease end stage relative to control. The test is classed as functional.
Test [10] concerns Mus musculus. Briefly: Neuroprotective activity in transgenic mouse amyotrophic lateral sclerosis model harboring human SOD1 H46R mutant assessed as prolongation of survival at 1 to 100 ug/kg, administered through gastric tube daily started between day 121 to 130 of disease onset until disease end stage relative to control. The format is functional, Stomach.
For test [11], the system named is Mus musculus. Briefly: Neuroprotective activity in transgenic mouse amyotrophic lateral sclerosis model harboring SOD1 G93A mutant assessed as death of motor neurons in lumbar spinal cord at 4 mg/kg, ip administered every other day started from postnatal day 40 until disease end stage by immunostaining method (reference value: 71%). The test is classed as functional.

Take `CCCCC1OC(=O)c2ccccc21` (racemic) [RAC-3-N-BUTYLPHTHALIDE]: the Activity in [1] was 42%.
`CC1=C(CO)C(=O)O[C@@H]([C@@H](C)[C@H]2CC[C@H]3[C@@H]4C[C@H]5O[C@]56[C@@H](O)C=CC(=O)[C@]6(C)[C@H]4CC[C@]23C)C1` [WITHAFERIN A]: the fold change (FC) in test [2] came out at 2.6; in test [3], 2.2. Further, the Activity in [4] worked out at 39%.
`O=C(/C=C/c1ccc(O)c(O)c1)OCCc1ccccc1` [CAFFEIC ACID PHENETHYL ESTER]: the Activity in test [5] is 10%.
Take `Cc1cc(C)c(OCC(=O)Nc2nc(-c3ccccn3)cs2)c(C)c1`: the Activity is on record as 16% in [6], 23% in test [7] and 11% in test [8].
As to `Cc1cc(C)c(N(C)CC(=O)Nc2nc(-c3ccccn3)c[nH]2)c(C)c1.Cl.Cl.Cl`, the Activity in [9] amounted to 14%; in test [10] it was 20%.
As for `N=C(N)N/N=C/c1c(Cl)cccc1Cl` [GUANABENZ], in test [11], the Activity is 44%.

(Values after ChEMBL document CHEMBL3853271, “Recent progress towards an effective treatment of amyotrophic lateral sclerosis using the SOD1 mouse model in a preclinical setting” (2016).)
